{"source": "patent US8859508B2", "about": "“Application of 5-methyl-1,3-benzenediol or derivatives thereof in the preparation of medicines and functional foods for treatment or prevention of depression” (Kunming Institute of Botany, Chinese Academy of Sciences, priority 2007, dated 2014)", "key": {"[1]": {"system": "Kunming mice", "test": "Tail suspension test (TST) in mice", "conditions": "TST mice, positive control, 15 mg/kg"}, "[2]": {"system": "Kunming mice", "test": "Forced swim test (FST) in mice", "conditions": "FST mice"}, "[3]": {"system": "Sprague-Dawley rats", "test": "Forced swim test (FST) in rats", "assay_type": "in vivo, rat", "conditions": "positive control, 15 mg/kg"}, "[4]": {"system": "Kunming mice", "test": "Elevated plus maze (EPM) test in mice", "assay_type": "in vivo, mouse", "conditions": "positive control, 2 mg/kg", "method": "(§1) Kunming mice (Certificate Number: A4CXK(Chuan)2003-16) from the Institute of Experimental Animals, People's Hospital of Sichuan Province, were used. They were 3-4 weeks old at the beginning of the experiment and weighed 25-30 g. ORG was prepared as described in Example 1. Animals were divided into drug administration groups with different doses of ORG, a vehicle control group, and a diazepam group (Jinyao Ltd. Co., Batch No. 106k1588) as positive control.\nElevated plus maze (EPM): The EPM had two open and two closed arms of equal size (30 cm long×5 cm wide). The two closed arms were connected by a central 5 cm×5 cm area. The whole maze was elevated to a height of 35 cm. ORG was administered i.p. 24 h and 5 h before the test started. Mice were individually placed in the center of the maze facing a closed arm. Each animal was tested for 5 min in a single session. The number of entrances into open arms, the number of entrances into closed arms, the total time spent in open arms, and the total time spent in closed arms were recorded; a standard of entry was defined as all limbs entering the arm. The number of entrances into open arms and time spent in open arms were the major indexes to evaluate the anxiety level of the animals, for the more entrances or time, the less the anxiety level.\n(§2) Data analysis: The results of the test are expressed as mean±SEM. One-way ANOVA was used followed by the LSD test with SPSS 11 software. The significance level was set at P<0.05."}, "[5]": {"system": "DD model mice", "test": "TST in constant darkness (DD) model mice", "assay_type": "in vivo, mouse", "conditions": "DD mice, positive control, 15 mg/kg", "method": "as §1, with “experiments” for “experiment”, “experimental” for “drug administration”, “doses,” for “doses of ORG, a”, “groups,” for “group,”, “an imipramine” for “a diazepam”, “(Sigma,” for “(Jinyao Ltd. Co.,”\n(§3) DD model in mice: Mice were kept under 24 h continuous dark conditions. The replacement of padding, addition of food and water, and other operations were undertaken in the condition that the intensity of red light was less than 1.0 lux. The period of this condition lasted for 28 days. In the last week, ORG was administered orally once a day for 1 week. The FST and TST were carried out 30 min after the last administration. Methods and data analysis were as described above."}, "[6]": {"system": "DD model mice", "test": "FST in constant darkness (DD) model mice", "assay_type": "in vivo, mouse", "conditions": "DD mice, positive control, 15 mg/kg", "method": "as §1, with “experiments” for “experiment”, “experimental” for “drug administration”, “doses,” for “doses of ORG, a”, “groups,” for “group,”, “an imipramine” for “a diazepam”, “(Sigma,” for “(Jinyao Ltd. Co.,”\nas §3"}, "[7]": {"system": "CMS model mice", "test": "TST in chronic unpredictable mild stress (CMS) model mice", "assay_type": "in vivo, mouse", "conditions": "CMS mice, positive control, 15 mg/kg", "method": "as §1, with “experiments” for “the experiment”, “experiment” for “drug administration”, “doses,” for “doses of ORG,”, “an imipramine” for “a diazepam”, “(Sigma,” for “(Jinyao Ltd. Co.,”\n(§4) CMS model: The chronic mild stresses that Kunming mice were subjected to were reversal of circadian rhythm, continuous light, cold, damp bedding, tilt cages, food and water restriction, and restraint. […] The stress period lasted for 8 weeks. In the last week, ORG was administered orally once a day for 7 consecutive days. The behavioral test was carried out 30 min after the last administration. The parameter tested was immobility time in the FST and TST in the CMS model mice. The methods of FST and TST and data analysis were as described above."}, "[8]": {"system": "CMS model mice", "test": "FST in chronic unpredictable mild stress (CMS) model mice", "assay_type": "in vivo, mouse", "conditions": "CMS mice, positive control, 15 mg/kg", "method": "as §1, with “experiments” for “the experiment”, “experiment” for “drug administration”, “doses,” for “doses of ORG,”, “an imipramine” for “a diazepam”, “(Sigma,” for “(Jinyao Ltd. Co.,”\nas §4"}, "[9]": {"system": "SD model mice", "test": "FST in sleep deprivation (SD) model mice", "assay_type": "in vivo, mouse", "conditions": "SD model mice, 24 h and 5 h before FST, 7.5 mg/kg", "method": "as §1, with “experiments” for “experiment”, “experiment” for “drug administration”, “doses,” for “doses of ORG,”, “an imipramine” for “a diazepam”, “(Sigma,” for “(Jinyao Ltd. Co.,”, “1061c1588)” for “106k1588)”\nSD model: A modified method with multiple platforms in a water environment was used to establish the SD model in mice. Mice on the platforms were free to eat and drink. However, if it fell asleep, it fell into the water because of the loss of muscle tone. The fallen animal climbed onto the platform again via a tilt pole which propped up the platforms. After 72 h of sleep deprivation, ORG was administered orally 24 h and 5 h before the FST started. The immobility time of animals were recorded. Methods and data analysis were as described above."}, "[10]": {"system": "Kunming mice", "test": "Morris water maze (MWM) in mice", "assay_type": "in vivo, mouse", "method": "Kunming mice (Certificate Number: A4CXK(Chuan)2003-16) from the Institute of Experimental Animals, People's Hospital of Sichuan Province, were used. They were 3-4 weeks old at the beginning of the experiment and weighed 25-30 g. ORG was prepared as described in Example 1. Animals were divided into drug administration groups with fluoxetine or different doses of ORG and a vehicle control group. The drug administration groups received 1.75 mg/kg or 3.5 mg/kg of ORG or 15 mg/kg of fluoxetine. Animals received a single i.p. injection of drug or vehicle 30 min either after training every day or 30 min before the retention test on day 8.\nMorris water maze: The MWM was performed in a circular pool (100 cm in diameter and 36 cm in depth) with a hidden platform (10 cm×10 cm) that was approximately 1 cm below the water surface. The pool was surrounded by yellow curtains with different shaped markers hanging in each quadrant. The time spent to find the hidden platform and the trajectory of the mouse were recorded by computer. From days 1 to 7, mice were placed in the pool to find the fixed hidden platform. On day 8, the platform was removed and the time that the mouse spent in the target quadrant was counted in 1 min of free swimming.\nas §2"}, "[11]": {"system": "serum corticosterone", "test": "Serum corticosterone level (radioimmunoassay), non-stressed and elevated platform stressed rats", "assay_type": "in vivo, rat"}, "[12]": {"conditions": "positive control, 15 mg/kg (Table 2)"}, "[13]": {"conditions": "i.p. 24 h and 5 h before test, 10 mg/kg (Table 5)"}}, "data": [{"smiles": "COc1ccc(C(CN(C)C)C2(O)CCCCC2)cc1", "note": "(stereo not drawn) [Venlafaxine, venlafaxine, reference compound]", "values": [{"measurement": "Immobility time (s) (mean ± SEM)", "setting": "[1]", "value": "102.85 ± 9.34", "unit": "s"}, {"measurement": "Immobility time (s) (mean ± SEM)", "setting": "[2]; [12]", "value": "134.28 ± 3.76", "unit": "s"}, {"measurement": "Immobility time (s) (mean ± SEM)", "setting": "[3]", "value": "100.80 ± 9.84", "unit": "s"}]}, {"smiles": "Cc1cc(O)cc(O)c1", "note": "[OR, orcinol]", "values": [{"measurement": "Immobility time (s) (mean ± SEM)", "setting": "[2]; i.p. 24 h and 5 h before test, 10 mg/kg (Table 4)", "value": "82.40 ± 10.64", "unit": "s"}]}, {"smiles": "CN1C(=O)CN=C(c2ccccc2)c2cc(Cl)ccc21", "note": "[Diazepam, diazepam, reference compound]", "values": [{"measurement": "Number of entries into open arms (mean ± SEM)", "setting": "[4]", "value": "4.80 ± 0.77"}, {"measurement": "Total time spent in the open arms (s) (mean ± SEM)", "setting": "[4]", "value": "46.90 ± 7.19", "unit": "s"}]}, {"smiles": "CN(C)CCCN1c2ccccc2CCc2ccccc21", "note": "[Imipramine, imipramine, reference compound]", "values": [{"measurement": "Immobility time (s) (mean ± SEM)", "setting": "[5]", "value": "131.22 ± 10.61", "unit": "s"}, {"measurement": "Immobility time (s) (mean ± SEM)", "setting": "[6]", "value": "161.22 ± 13.08", "unit": "s"}, {"measurement": "Immobility time (s) (mean ± SEM)", "setting": "[1]", "value": "105.65 ± 5.71", "unit": "s"}, {"measurement": "Immobility time (s) (mean ± SEM)", "setting": "[2]; [12]", "value": "131.20 ± 3.91", "unit": "s"}, {"measurement": "Immobility time (s) (mean ± SEM)", "setting": "[2]; positive control, 15 mg/kg (Table 4)", "value": "96.38 ± 12.04", "unit": "s"}, {"measurement": "Immobility time (s) (mean ± SEM)", "setting": "[2]; positive control, 15 mg/kg (Table 5)", "value": "146.00 ± 6.46", "unit": "s"}, {"measurement": "Immobility time (s) (mean ± SEM)", "setting": "[7]", "value": "131.22 ± 10.61", "unit": "s"}, {"measurement": "Immobility time (s) (mean ± SEM)", "setting": "[3]", "value": "92.72 ± 7.09", "unit": "s"}, {"measurement": "Immobility time (s) (mean ± SEM)", "setting": "[8]", "value": "166.00 ± 13.84", "unit": "s"}, {"measurement": "Immobility time (s) (mean ± SEM)", "setting": "[9]", "value": "150.27 ± 13.17", "unit": "s"}]}, {"smiles": "CNCCC(Oc1ccc(C(F)(F)F)cc1)c1ccccc1", "note": "(stereo not drawn) [Fluoxetine, reference compound]", "values": [{"measurement": "Time spent in the right quadrant (s) (mean ± SEM)", "setting": "[10]; i.p. 30 min before retrieval on day 8, 15 mg/kg", "value": "29.44 ± 2.14", "unit": "s"}, {"measurement": "Time spent in the right quadrant (s) (mean ± SEM)", "setting": "[10]; i.p. daily 30 min after training, retention test day 8, 15 mg/kg", "value": "32.61 ± 2.20", "unit": "s"}, {"measurement": "Concentration of serum corticosterone (ng/ml) (mean ± SEM)", "setting": "[11]; non-stress rats, 15 mg/kg", "value": "167.20 ± 31.35", "unit": "ng/mL"}, {"measurement": "Concentration of serum corticosterone (ng/ml) (mean ± SEM)", "setting": "[11]; non-stress rats, 30 mg/kg", "value": "178.14 ± 38.77", "unit": "ng/mL"}, {"measurement": "Concentration of serum corticosterone (ng/ml) (mean ± SEM)", "setting": "[11]; stress rats, 15 mg/kg", "value": "331.35 ± 46.43", "unit": "ng/mL"}, {"measurement": "Concentration of serum corticosterone (ng/ml) (mean ± SEM)", "setting": "[11]; stress rats, 30 mg/kg", "value": "324.58 ± 58.63", "unit": "ng/mL"}]}, {"smiles": "Cc1cc(O)cc(OC2OC(COC3OC(CO)C(O)C(O)C3O)C(O)C(O)C2O)c1", "note": "[ORGG, orcinol-1-O-[β-D-glucopyranosyl-(1→6)]-β-D-glucopyranoside]", "values": [{"measurement": "Immobility time (s) (mean ± SEM)", "setting": "[2]; [13]", "value": "184.20 ± 11.29", "unit": "s"}]}, {"smiles": "CC(=O)Oc1cc(C)cc(OC(C)=O)c1", "note": "[OR-2Ac, 1,3-O-diacetylorcinol]", "values": [{"measurement": "Immobility time (s) (mean ± SEM)", "setting": "[2]; [13]", "value": "170.10 ± 6.37", "unit": "s"}]}]}
